Molecules are shown by their SMILES. The source made the active and inactive calls. Bounds are passed on as bounds.

Among the data in ChEMBL document CHEMBL1201862, “PubChem BioAssay data set” (2004) are AC50, IC50 and EC50 values, retold here.

One experiment concerns the target T1, Cytochrome P450 1A2 (Homo sapiens, UniProt P05177).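 Note: PubChem cytochrome P450 panel assay, CYP1A2 panel member.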
T1 sequence (P05177 whole entry): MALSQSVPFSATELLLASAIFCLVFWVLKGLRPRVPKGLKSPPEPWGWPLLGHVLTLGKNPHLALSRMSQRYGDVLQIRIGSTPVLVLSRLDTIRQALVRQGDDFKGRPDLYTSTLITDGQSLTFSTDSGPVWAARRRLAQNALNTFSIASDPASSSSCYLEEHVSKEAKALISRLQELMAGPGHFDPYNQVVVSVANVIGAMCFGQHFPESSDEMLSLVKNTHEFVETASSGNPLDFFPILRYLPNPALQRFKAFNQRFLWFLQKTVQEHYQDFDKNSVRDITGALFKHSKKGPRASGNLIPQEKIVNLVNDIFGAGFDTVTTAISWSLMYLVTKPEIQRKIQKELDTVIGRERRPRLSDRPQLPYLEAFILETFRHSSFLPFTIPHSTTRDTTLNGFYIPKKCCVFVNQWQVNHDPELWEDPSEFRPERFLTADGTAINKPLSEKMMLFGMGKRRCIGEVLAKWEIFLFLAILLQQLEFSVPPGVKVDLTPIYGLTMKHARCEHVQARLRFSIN

In another experiment the target is Cytochrome P450 2C19 (Homo sapiens, UniProt P33261). Briefly: Cytochrome panel assay with activity outcomes. Panel member name: p450-cyp2c19 Compounds with AC50 equal or less than 10 uM are considered active. The settings on record: read-out: AC50. Format: functional.
A further experiment deals with T2, Leucine aminopeptidase (Plasmodium falciparum 3D7, UniProt Q8IL11).
T2 sequence (Q8IL11 whole entry): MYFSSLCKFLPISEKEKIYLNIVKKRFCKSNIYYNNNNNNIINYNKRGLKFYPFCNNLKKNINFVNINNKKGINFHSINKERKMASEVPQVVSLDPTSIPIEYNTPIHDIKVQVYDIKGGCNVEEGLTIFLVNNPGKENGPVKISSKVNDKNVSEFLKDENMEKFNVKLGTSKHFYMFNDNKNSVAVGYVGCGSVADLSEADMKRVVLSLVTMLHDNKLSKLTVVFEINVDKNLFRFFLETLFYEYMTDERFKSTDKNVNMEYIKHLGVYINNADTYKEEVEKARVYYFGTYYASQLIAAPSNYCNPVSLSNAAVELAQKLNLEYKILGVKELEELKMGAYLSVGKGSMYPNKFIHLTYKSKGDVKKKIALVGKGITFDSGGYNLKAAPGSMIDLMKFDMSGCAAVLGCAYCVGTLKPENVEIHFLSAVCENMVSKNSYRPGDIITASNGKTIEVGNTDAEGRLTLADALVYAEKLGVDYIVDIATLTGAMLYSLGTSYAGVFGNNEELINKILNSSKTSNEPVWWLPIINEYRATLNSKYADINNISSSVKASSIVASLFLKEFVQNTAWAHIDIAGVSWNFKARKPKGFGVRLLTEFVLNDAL
Briefly: P. falciparum M17LAP inhibitors, primary screen, biochemical, fluorogenic H-Leu-NHMec substrate, 1536-well (AID 1619). Format: functional.

For a further experiment, the target named is Cytochrome P450 2C9 (Homo sapiens, UniProt P11712).
For experiment [1], the target named is T3, Short transient receptor potential channel 4 (Mus musculus, UniProt Q9QUQ5).
T3 sequence (Q9QUQ5 whole entry): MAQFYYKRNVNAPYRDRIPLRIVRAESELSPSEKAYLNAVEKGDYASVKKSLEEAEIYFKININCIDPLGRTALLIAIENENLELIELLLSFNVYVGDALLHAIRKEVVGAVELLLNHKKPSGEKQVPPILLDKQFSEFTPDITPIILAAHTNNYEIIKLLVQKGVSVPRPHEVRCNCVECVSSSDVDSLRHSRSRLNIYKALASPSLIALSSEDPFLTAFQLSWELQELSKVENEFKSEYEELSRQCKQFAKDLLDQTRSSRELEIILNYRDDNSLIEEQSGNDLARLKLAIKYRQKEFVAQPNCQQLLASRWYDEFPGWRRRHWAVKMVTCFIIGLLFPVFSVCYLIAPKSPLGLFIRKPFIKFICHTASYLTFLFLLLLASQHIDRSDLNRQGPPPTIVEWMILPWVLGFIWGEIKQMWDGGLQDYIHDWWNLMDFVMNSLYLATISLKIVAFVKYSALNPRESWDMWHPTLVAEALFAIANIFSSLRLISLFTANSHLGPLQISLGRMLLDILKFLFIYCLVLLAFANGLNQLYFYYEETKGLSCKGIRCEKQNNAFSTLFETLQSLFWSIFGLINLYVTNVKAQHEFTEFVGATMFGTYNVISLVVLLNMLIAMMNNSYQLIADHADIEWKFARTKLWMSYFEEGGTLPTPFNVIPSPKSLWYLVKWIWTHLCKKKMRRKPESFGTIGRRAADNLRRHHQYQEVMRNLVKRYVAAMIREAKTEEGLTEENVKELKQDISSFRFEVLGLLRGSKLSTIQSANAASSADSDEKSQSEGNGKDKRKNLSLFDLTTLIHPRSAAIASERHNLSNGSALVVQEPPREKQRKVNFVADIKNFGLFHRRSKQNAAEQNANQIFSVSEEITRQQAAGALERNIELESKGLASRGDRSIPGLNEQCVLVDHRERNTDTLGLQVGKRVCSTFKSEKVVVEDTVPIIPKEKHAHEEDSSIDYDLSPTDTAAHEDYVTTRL
Description: mouse TRPC4 channel activators, dose response, cell-based, HEK293 TRPC4/mu-opioid, Fluo-4 calcium (AID 434937). Format: functional.

The next experiment addresses Mu-type opioid receptor (Homo sapiens, UniProt P35372). Description: Counterscreen for agonists of heterodimerization of the mu 1 (OPRM1) and delta 1 (OPRD1) opioid receptors: Luminescence-based cell-based high throughput dose response assay to identify agonists of OPRM1 homodimerization. In kind it is functional.
The target of experiment [2] is Delta-type opioid receptor (Homo sapiens, UniProt P41143). Description: Counterscreen for agonists of heterodimerization of the mu 1 (OPRM1) and delta 1 (OPRD1) opioid receptors: Luminescence-based cell-based high throughput dose response assay to identify agonists of OPRD1 homodimerization. [Related pubchem assays (depositor defined):AID504326, AID504355, AID504692, AID504904, AID504905]. Format: functional. Background: A counterscreen serves to expose hits that act by an unwanted route or on another target.

Experiment [3] has as its target T4, DNA repair protein RAD52 homolog (Homo sapiens, UniProt P43351).
T4 sequence (P43351 whole entry): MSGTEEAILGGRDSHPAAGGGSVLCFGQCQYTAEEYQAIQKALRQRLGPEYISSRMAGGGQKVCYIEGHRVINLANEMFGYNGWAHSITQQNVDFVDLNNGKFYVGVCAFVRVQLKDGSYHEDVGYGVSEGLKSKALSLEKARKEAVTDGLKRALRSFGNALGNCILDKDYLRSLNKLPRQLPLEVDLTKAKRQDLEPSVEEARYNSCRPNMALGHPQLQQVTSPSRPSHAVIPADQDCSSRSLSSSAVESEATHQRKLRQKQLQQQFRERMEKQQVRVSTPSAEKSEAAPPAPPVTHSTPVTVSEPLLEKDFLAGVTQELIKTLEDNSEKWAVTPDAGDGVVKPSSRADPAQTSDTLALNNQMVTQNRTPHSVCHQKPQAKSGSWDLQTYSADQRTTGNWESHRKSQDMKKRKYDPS
In kind it is functional, biochemical.

For experiment [4], the target named is 5-hydroxytryptamine receptor 5A (Homo sapiens, UniProt P47898). Briefly: Counterscreen for agonists of OPRM1-OPRD1 heterodimerization: luminescence-based cell-based high throughput dose response assay to identify agonists of 5-hydroxytryptamine (serotonin) 5A receptor (HTR5A). [Related pubchem assays (depositor defined):AID504326, AID504355, AID504692, AID504904, AID504905]. In kind it is functional.

The target of experiment [5] is Alkaline phosphatase, placental type (Homo sapiens, UniProt P05187). Briefly: PLAP enzyme inhibitors, confirmation, biochemical, luminescence (AID 1512). In kind it is functional.
In the next experiment the target is Paired box protein Pax-8 (Homo sapiens, UniProt Q06710). Description: inhibitors of PAX8-driven TPO luciferase reporter, dose response, RMG-I cells, cherry-pick (AID 687027).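 Note: luciferase reporter driven by Pax8 target thyroperoxidase promoter measured by SteadyGlo luminescence.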 Format: functional, cell-based. (In general: In a reporter assay the amount or activity of a reporter protein is the signal.)
The nature of experiment [6]: IGROV1 ovarian cancer cell cytotoxicity, dose response, PAX8 inhibitor project, plate reader, dry powder samples (AID 743043). In kind it is functional, cell-based. The settings on record: IGROV-1.
The target of experiment [7] is T5, Carboxy-terminal domain RNA polymerase II polypeptide A small phosphatase 1 (Homo sapiens, UniProt Q9GZU7).
T5 sequence (Q9GZU7 whole entry): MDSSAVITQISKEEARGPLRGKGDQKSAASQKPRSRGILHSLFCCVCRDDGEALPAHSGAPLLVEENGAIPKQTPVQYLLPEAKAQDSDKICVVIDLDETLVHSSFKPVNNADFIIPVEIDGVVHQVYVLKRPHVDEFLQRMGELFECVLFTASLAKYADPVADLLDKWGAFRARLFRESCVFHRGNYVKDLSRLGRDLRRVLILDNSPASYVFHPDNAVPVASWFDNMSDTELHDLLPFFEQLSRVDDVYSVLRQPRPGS
Description: inhibitors of CTDSP1, concentration-response testing, biochemical assay, absorbance-based, actives from ultra-high-throughput screening (AID 540297). In kind it is functional.

For experiment [8], the target named is T6, Probable nicotinate-nucleotide adenylyltransferase (Staphylococcus aureus (strain N315), UniProt P65502). Format: functional, Staphylococcus aureus subsp. aureus N315.
The target in experiment [9] is T6, Probable nicotinate-nucleotide adenylyltransferase. Format: functional, Staphylococcus aureus subsp. aureus N315. The settings on record: read-out: IC50_Mean.
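Throughout, for IC50 Mean: confirmatory dose-response retesting of NadD inhibitor hits first found in an ultra-high-throughput screen.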

T6 sequence (P65502 whole entry): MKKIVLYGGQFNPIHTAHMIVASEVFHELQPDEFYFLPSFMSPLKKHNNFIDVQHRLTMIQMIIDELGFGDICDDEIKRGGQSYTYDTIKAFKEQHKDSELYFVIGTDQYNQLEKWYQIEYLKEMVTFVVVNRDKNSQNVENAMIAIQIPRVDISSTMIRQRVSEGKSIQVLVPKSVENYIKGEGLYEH
Sequence of Delta-type opioid receptor (P41143 whole entry): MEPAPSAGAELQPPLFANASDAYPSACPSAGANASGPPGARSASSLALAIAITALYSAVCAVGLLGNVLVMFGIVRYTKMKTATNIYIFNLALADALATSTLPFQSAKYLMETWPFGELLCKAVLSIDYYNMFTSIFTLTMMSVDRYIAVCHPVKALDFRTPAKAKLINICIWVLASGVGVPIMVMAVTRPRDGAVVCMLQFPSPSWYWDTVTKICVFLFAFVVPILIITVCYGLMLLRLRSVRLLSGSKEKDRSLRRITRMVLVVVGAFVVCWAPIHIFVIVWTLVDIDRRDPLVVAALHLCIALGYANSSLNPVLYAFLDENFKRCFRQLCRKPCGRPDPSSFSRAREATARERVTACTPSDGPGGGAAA
Sequence of 5-hydroxytryptamine receptor 5A (P47898 whole entry): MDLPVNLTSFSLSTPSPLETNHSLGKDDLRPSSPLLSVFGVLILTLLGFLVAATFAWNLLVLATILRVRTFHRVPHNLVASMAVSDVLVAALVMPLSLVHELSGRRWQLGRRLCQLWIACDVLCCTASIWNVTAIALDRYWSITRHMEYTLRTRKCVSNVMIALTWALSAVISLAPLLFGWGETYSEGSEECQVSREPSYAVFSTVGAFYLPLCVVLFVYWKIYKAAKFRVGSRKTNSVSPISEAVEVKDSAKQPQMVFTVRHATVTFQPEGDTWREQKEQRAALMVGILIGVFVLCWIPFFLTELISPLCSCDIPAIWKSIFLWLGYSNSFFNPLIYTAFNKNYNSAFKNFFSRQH
Sequence of Alkaline phosphatase, placental type (P05187 whole entry): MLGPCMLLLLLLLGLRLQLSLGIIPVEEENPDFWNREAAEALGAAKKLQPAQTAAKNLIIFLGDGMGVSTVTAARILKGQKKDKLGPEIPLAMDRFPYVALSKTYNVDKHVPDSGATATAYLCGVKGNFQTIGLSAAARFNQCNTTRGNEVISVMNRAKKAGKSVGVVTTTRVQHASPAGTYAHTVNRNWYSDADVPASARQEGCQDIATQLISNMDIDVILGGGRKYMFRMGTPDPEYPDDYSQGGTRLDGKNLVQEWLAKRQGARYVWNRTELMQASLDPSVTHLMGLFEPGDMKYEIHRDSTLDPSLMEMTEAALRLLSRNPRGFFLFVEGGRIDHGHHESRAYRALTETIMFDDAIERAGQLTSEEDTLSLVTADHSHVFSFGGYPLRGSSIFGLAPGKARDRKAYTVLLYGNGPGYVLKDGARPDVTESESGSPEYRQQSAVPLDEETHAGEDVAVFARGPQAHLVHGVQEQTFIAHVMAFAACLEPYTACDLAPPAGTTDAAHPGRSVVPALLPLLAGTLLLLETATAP
Sequence of Paired box protein Pax-8 (Q06710 whole entry): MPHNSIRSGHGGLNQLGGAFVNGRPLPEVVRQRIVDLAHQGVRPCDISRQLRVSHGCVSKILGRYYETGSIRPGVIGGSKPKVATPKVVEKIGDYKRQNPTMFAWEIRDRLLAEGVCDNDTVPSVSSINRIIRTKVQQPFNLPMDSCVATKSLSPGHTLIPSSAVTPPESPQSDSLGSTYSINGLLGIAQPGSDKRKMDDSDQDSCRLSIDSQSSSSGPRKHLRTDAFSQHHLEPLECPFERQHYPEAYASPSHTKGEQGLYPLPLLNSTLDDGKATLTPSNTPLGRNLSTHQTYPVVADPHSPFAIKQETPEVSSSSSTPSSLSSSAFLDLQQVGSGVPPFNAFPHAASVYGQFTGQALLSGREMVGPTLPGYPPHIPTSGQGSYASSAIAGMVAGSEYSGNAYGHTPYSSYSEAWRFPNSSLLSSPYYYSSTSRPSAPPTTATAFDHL
Sequence of Cytochrome P450 2C19 (P33261 whole entry): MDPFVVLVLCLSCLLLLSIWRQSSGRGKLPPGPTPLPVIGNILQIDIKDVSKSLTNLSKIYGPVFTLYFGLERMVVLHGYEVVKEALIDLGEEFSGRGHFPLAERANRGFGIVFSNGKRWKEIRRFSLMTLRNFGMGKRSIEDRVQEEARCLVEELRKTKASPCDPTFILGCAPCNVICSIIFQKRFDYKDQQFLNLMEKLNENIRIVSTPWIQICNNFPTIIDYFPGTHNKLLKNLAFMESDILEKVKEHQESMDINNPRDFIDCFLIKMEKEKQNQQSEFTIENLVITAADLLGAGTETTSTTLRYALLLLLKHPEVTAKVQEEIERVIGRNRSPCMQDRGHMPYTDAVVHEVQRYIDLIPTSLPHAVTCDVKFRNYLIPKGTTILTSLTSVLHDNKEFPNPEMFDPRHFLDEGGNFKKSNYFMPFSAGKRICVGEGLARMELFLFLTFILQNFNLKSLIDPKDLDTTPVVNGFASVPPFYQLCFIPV
Sequence of Cytochrome P450 2C9 (P11712 whole entry): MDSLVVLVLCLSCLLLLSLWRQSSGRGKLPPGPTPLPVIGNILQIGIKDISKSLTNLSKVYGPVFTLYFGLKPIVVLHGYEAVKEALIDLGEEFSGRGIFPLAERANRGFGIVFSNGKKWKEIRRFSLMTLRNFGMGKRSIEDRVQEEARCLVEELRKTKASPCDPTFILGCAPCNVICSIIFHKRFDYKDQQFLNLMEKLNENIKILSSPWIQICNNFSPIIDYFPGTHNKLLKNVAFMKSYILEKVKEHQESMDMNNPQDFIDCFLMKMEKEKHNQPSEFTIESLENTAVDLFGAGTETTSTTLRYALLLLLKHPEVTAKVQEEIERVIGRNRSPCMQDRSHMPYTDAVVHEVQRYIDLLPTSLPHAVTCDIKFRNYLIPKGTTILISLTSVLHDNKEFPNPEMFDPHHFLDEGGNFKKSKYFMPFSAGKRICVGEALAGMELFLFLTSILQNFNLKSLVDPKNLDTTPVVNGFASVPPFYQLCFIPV
Sequence of Mu-type opioid receptor (P35372 whole entry): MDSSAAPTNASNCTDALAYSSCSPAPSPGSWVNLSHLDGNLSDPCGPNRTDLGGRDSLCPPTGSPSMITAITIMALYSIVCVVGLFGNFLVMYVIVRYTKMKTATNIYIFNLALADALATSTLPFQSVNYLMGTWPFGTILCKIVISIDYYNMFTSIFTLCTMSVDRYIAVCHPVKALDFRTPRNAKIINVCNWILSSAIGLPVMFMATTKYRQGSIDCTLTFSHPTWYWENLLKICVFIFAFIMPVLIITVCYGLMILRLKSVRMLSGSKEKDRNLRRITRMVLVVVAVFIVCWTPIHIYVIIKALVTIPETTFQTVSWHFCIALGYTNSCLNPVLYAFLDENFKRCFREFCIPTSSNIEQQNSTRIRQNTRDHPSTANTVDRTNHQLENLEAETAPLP

Usually AC50 stands for the concentration giving half of the maximal activity seen. As for `Cc1ccc(N(CC(N)=O)C2SC(=O)N(Cc3cccc(C(=O)O)c3)C2=O)cc1` (centres undefined), the AC50 at Cytochrome P450 1A2 was 15.8 µM (inconclusive); on Cytochrome P450 2C19, 20 µM (inconclusive); on Cytochrome P450 2C9, 12.6 µM (inconclusive). The IC50 at Leucine aminopeptidase is 40.7 µM (active).
In the case of `Cc1cc(C(=O)COC(=O)c2ccc[nH]c2=O)c(C)n1CCc1ccc(F)cc1`, at Leucine aminopeptidase, the IC50 is 18.2 µM (active).
For orientation: EC50 means the concentration at which the effect is half-maximal. As for `CC1CN(C)C(C)c2c1oc1ccc(N)cc21` (centres undefined), the EC50 is 0.841 µM (active) in experiment [1], > 92.5 µM (inactive) at Mu-type opioid receptor, > 92.5 µM (inactive) in [2] and > 92.5 µM (inactive) in experiment [4]. In addition, the concentration at half-maximal activity (AC50) in experiment [3] is 9.06 µM (active).
Consider `CCOc1ccc(NC(=O)CSc2nnc(N)s2)c([N+](=O)[O-])c1`, for which, at Leucine aminopeptidase, the IC50 is 2.52 µM (active).
On the same count and under the same terms, in the case of `CCOC(=O)C(CSCC(=O)c1ccc(Br)cc1)NC(=O)OC(C)(C)C` (centres undefined) it was 62.2 µM (active).
Consider `Cc1ccc(-n2ncc3c(NNC(=O)c4ccco4)ncnc32)c(C)c1`, for which the IC50 in experiment [5] is > 100 µM (inactive).
For `C[C@@H]1ON(C)[C@H]2C[C@H]3c4cc(-c5cc6ccccc6o5)ccc4CCN3C[C@@H]12`, the half-maximal activity concentration (AC50) in experiment [3] was 28.7 µM (active).
As for `C[C@H](CO)N1C[C@H](C)[C@H](CN(C)S(=O)(=O)c2ccc(F)cc2)OCCCC[C@H](C)Oc2ccc(NS(=O)(=O)c3ccc(Cl)cc3)cc2C1=O`, the figures for the AC50 (at Paired box protein Pax-8; in [6]) were 10.1 µM (active) and 54.7 µM (active), respectively.
Take `O=C(O)Cc1sc(N/N=C\c2ccccc2)nc1-c1ccccc1`: the results for the IC50 in experiment [7], in [8] and in experiment [9] were 5.14 µM (active), 9.86 µM (active) and 27.7 µM (active), respectively.
